Test results as given in ChEMBL document CHEMBL4411262, “Ulleungdin, a Lasso Peptide with Cancer Cell Migration Inhibitory Activity Discovered by the Genome Mining Approach” (J Nat Prod, 2018).
Activity calls are given as the source filed them. No cut-off for these calls is given here. Where a SMILES comes first, the peptide text is derived from it. Bridges are numbered along the chain shown (N, C = ends).

Assays:
A549 [1] = assay: Effect on FAK expression in human A549 cells up to 50 uM after 24 hrs by Western blot analysis; type: functional, cell-based
A549 [2] = assay: Antiinvasive activity against human A549 cells assessed as inhibition of cell invasion at 50 uM after 24 hrs by crystal violet staining based transwell assay relative to control; type: functional; conditions: A549, 24 h
A549 [3] = assay: Effect on MMP9 expression in human A549 cells up to 50 uM after 24 hrs by Western blot analysis; type: functional, cell-based
A549 [4] = assay: Effect on JNK expression in human A549 cells up to 50 uM after 24 hrs by Western blot analysis; type: functional, cell-based
A549 [5] = assay: Effect on ERK phosphorylation in human A549 cells up to 50 uM after 24 hrs by Western blot analysis; type: cell-based
A549 [6] = assay: Effect on MMP2 expression in human A549 cells up to 50 uM after 24 hrs by Western blot analysis; type: functional, cell-based
A549 [7] = assay: Effect on paxillin expression in human A549 cells up to 50 uM after 24 hrs by Western blot analysis; type: functional, cell-based
A549 [8] = assay: Antimigratory activity against human A549 cells assessed as reduction in cell motility measured at 15 mins interval for 12 hrs by Holomonitor M4 time-lapse cytometric method; type: functional, cell-based
[9] = target: Matrix metalloproteinase-9 (Homo sapiens) (UniProt P14780); assay: Effect on MMP9 phosphorylation in human A549 cells up to 50 uM after 24 hrs by Western blot analysis; type: cell-based
Paxillin (Homo sapiens) = Paxillin (Homo sapiens) (UniProt P49023); assay: Effect on paxillin phosphorylation in human A549 cells up to 50 uM after 24 hrs by Western blot analysis; type: cell-based
A549 [10] = assay: Cytotoxicity against human A549 cells assessed as effect on cell viability up to 100 uM after 24 hrs by EZ-Cytox cell viability assay; type: cell-based; conditions: a549, 24 h
A549 [11] = assay: Antimigratory activity against human A549 cells assessed as reduction in cell migration measured at 15 mins interval for 12 hrs by Holomonitor M4 time-lapse cytometric method; type: functional, cell-based
A549 [12] = assay: Effect on p38 expression in human A549 cells up to 50 uM after 24 hrs by Western blot analysis; type: functional, cell-based
A549 [13] = assay: Effect on ERK expression in human A549 cells up to 50 uM after 24 hrs by Western blot analysis; type: functional, cell-based
[14] = target: c-Jun N-terminal kinase, JNK (Homo sapiens) (UniProt P45983+P53779+P45984); assay: Effect on JNK phosphorylation in human A549 cells up to 50 uM after 24 hrs by Western blot analysis; type: cell-based
[15] = target: Focal adhesion kinase 1 (Homo sapiens) (UniProt Q05397); assay: Effect on FAK phosphorylation in human A549 cells up to 50 uM after 24 hrs by Western blot analysis; type: cell-based
[16] = target: MAP kinase p38 (Homo sapiens) (UniProt O15264+Q15759+Q16539+P53778); assay: Effect on p38 phosphorylation in human A549 cells up to 50 uM after 24 hrs by Western blot analysis; type: cell-based
[17] = target: 72 kDa type IV collagenase (Homo sapiens) (UniProt P08253); assay: Effect on MMP2 phosphorylation in human A549 cells up to 50 uM after 24 hrs by Western blot analysis; type: cell-based
Sequence of 72 kDa type IV collagenase (Homo sapiens) (P08253 110-660 limits assumed): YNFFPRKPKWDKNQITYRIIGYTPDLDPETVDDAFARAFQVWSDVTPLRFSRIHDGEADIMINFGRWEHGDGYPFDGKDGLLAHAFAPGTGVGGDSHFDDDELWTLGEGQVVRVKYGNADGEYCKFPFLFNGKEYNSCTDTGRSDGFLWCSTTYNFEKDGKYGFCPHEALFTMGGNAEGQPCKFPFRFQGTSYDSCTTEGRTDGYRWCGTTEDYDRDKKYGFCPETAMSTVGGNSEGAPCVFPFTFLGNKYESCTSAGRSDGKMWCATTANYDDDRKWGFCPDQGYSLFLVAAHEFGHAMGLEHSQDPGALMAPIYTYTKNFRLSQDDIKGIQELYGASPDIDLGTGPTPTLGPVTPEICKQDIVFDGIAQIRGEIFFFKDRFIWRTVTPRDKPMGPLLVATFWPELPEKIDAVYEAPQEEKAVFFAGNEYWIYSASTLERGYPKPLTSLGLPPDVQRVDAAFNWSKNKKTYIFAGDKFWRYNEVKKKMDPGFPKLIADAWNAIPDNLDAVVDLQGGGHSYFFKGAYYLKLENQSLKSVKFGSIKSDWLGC

Sequence of Focal adhesion kinase 1 (Homo sapiens) (Q05397 2-1052 limits assumed): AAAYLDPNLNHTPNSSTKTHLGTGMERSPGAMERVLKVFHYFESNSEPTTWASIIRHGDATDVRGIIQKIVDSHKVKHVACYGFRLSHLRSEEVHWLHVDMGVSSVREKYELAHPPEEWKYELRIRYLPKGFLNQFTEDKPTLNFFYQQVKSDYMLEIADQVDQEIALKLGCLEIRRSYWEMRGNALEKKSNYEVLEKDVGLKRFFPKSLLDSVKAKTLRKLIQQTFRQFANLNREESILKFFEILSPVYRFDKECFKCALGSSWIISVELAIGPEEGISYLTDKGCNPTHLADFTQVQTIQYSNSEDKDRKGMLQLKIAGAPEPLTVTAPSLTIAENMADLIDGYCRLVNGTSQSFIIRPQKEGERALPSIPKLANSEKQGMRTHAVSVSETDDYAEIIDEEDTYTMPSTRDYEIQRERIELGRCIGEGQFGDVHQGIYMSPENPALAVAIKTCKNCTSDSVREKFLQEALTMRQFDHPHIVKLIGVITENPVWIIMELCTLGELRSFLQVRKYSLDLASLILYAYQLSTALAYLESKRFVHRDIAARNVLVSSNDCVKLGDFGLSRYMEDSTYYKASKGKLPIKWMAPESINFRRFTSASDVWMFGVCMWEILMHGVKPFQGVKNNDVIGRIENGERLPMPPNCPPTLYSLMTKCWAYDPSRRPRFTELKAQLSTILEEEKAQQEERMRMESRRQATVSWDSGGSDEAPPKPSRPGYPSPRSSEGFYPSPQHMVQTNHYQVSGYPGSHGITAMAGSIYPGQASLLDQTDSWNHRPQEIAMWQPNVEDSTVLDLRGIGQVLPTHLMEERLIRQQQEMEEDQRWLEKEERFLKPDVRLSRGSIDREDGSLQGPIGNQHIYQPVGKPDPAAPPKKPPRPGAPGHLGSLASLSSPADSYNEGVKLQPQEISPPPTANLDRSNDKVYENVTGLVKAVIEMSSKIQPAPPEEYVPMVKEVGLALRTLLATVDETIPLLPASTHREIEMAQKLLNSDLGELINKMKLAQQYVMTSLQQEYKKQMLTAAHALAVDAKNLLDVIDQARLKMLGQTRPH
Sequence of Matrix metalloproteinase-9 (Homo sapiens) (P14780 whole entry): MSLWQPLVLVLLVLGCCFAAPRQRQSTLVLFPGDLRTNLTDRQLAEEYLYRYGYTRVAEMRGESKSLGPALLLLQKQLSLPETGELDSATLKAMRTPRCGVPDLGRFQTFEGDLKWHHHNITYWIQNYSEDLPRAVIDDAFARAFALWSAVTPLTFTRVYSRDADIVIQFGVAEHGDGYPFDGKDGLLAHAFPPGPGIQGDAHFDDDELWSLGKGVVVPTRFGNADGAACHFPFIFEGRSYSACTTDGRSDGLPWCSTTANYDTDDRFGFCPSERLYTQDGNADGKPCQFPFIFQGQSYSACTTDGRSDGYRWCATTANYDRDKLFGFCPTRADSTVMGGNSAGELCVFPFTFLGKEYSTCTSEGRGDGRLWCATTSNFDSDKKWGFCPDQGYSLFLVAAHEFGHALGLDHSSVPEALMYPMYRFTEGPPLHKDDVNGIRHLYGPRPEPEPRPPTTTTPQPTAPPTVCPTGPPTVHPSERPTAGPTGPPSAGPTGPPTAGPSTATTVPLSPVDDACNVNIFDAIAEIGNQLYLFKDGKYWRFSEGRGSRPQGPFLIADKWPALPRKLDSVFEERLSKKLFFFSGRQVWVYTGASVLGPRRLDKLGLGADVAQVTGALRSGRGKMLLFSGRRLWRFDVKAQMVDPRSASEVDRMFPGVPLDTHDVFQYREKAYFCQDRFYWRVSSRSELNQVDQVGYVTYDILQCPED
Sequence of Paxillin (Homo sapiens) (P49023 whole entry): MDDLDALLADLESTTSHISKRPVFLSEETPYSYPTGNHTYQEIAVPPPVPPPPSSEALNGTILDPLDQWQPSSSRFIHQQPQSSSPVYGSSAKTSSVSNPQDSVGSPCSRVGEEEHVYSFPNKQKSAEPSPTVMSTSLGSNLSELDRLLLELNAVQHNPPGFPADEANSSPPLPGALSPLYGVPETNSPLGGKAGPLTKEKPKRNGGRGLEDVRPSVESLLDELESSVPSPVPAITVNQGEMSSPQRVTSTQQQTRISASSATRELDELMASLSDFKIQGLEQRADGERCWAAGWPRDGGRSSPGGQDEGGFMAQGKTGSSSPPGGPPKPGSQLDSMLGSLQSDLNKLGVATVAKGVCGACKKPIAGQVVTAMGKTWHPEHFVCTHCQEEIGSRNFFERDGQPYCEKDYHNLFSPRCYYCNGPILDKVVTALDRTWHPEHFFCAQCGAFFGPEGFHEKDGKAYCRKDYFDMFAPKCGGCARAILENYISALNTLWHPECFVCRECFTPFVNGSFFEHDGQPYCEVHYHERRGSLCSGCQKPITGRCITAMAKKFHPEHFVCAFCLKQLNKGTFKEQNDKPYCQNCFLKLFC

Activity [9] | Activity (Paxillin (Homo sapiens)) | Activity [14] | Activity [15] | Activity [16] | Activity [17] | SMILES | Activity (A549 [1]) | inhibition at 50 µM (A549 [2]) | Activity (A549 [3]) | Activity (A549 [4]) | Activity (A549 [5]) | Activity (A549 [6]) | Activity (A549 [7]) | Activity (A549 [8]) | Activity (A549 [10]) | Activity (A549 [11]) | Activity (A549 [12]) | Activity (A549 [13])
inactive | inactive | inactive | inactive | inactive | inactive | CC[C@H](C)[C@@H]1NC(=O)[C@H](Cc2ccccc2)NC(=O)CNC(=O)C[C@@H](C(=O)N[C@H](C(=O)N[C@@H](Cc2ccccc2)C(=O)NCC(=O)N[C@@H](Cc2cnc[nH]2)C(=O)N[C@@H](Cc2ccc(O)cc2)C(=O)NCC(=O)NCC(=O)O)[C@@H](C)CC)NC(=O)[C@H](CCCCN)NC(=O)CNC(=O)[C@H](Cc2c[nH]c3ccccc23)NC(=O)CNC1=O (GFIGWGKDIFGHYGG-OH; lactam N-8) | inactive | 48.4% | inactive | inactive | inactive | inactive | inactive | Dose-dependent effect | Non-Toxic | Dose-dependent effect | inactive | inactive
– | – | – | – | – | – | CC(C)C[C@H](NC(=O)CNC(=O)[C@H](Cc1ccccc1)NC(=O)[C@H](CO)NC(=O)[C@@H]1CC(=O)NCC(=O)N[C@@H](Cc2ccccc2)C(=O)NCC(=O)N[C@@H](CO)C(=O)N[C@@H](CCCCN)C(=O)N2CCC[C@H]2C(=O)N[C@@H](CC(C)C)C(=O)N1)C(=O)N[C@@H](CC(N)=O)C(=O)N[C@@H](Cc1ccccc1)C(=O)N[C@@H](Cc1ccccc1)C(=O)O (GFGSKPLDSFGLNFF-OH; lactam N-8) | – | 56% | – | – | – | – | – | – | – | – | – | –
– | – | – | – | – | – | CC[C@H](C)[C@@H]1NC(=O)[C@@H]2CCCN2C(=O)[C@H](CCCCN)NC(=O)[C@H](CO)NC(=O)CNC(=O)[C@H](Cc2ccccc2)NC(=O)CNC(=O)C[C@@H](C(=O)N[C@@H](CO)C(=O)N[C@@H](Cc2ccccc2)C(=O)NCC(=O)N[C@@H](CC(C)C)C(=O)N[C@@H](CO)C(=O)N[C@@H](Cc2c[nH]c3ccccc23)C(=O)N[C@@H](CC(C)C)C(=O)O)NC1=O [SUNGSANPIN] (GFGSKPIDSFGLSWL-OH; lactam N-8) | – | 53% | – | – | – | – | – | – | – | – | – | –
